Results on three compounds are retold here after patent US20240131032A1, “AN ACTIVITY-GUIDED MAP OF ELECTROPHILE-CYSTEINE INTERACTIONS IN PRIMARY HUMAN IMMUNE CELLS” (The Scripps Research Institute, priority 2019, published 2024).

Assay [1] concerns NF-κB. Briefly: NF-κB activation in stimulated T cells (phosphorylation readout). The format is cell-based, human. The note with it: 24 h. Here is the method:
All treatments were for 24 h.
Freshly isolated T cells (2×10^5 cells/well) were harvested and stimulated as described before in a 96-well plate in the presence of DMSO or compounds of interest. Following the overnight treatment, the cells were pelleted in a U-bottom plate, harvested by centrifugation (600 g, 3 min, 4° C.), washed with PBS, and stained with near-IR LIVE/DEAD dye as described above. After the staining, intracellular phospho-NF-κB p65 (Ser536) levels were measured using PE conjugate of phospho-NF-κB p65 (Ser536) (93H1) rabbit antibody (Cell Signaling Technology) according to manufacturer's instructions. Briefly, the cells were washed with PBS and fixed with 4% PFA in PBS (100 μL, 15 min, rt). The cells were washed with PBS again (2×150 μL), placed on ice and permeabilized with 90% MeOH (100 μL/well, slow addition with gentle mixing by pipetting up and down). Following a 30 min incubation on ice, the plate was sealed and stored at −20° C. overnight. The following day, the cells were thawed on ice, washed with PBS (150 μL×2), and stained with PE conjugate of phospho-NF-κB p65 (Ser536) (93H1) rabbit antibody (50 μL, 1:100 dilution in incubation buffer (1% FBS in PBS)) for 1 h at rt in the dark. The cells were then washed with incubation buffer (150 μL×2) and resuspended in PBS for further flow cytometry analysis.

The subject of assay [2] is primary human T cells. Kind of assay: Multidimensional screen for inhibition of T cell activation (IL-2, IFN-γ secretion, CD25, CD69 expression). Format: cell-based. The note with it: electrophilic compounds 10 μM each (DMF 50 μM), 24 h, anti-CD3/anti-CD28 activation. Here is the method: FIG. 4A-4D is an overview of a multidimensional screen to identify elaborated electrophilic compounds that suppress T cell activation. FIG. 4A is a workflow for T-cell activation screen. Primary human T cells were treated with a focused library of elaborated electrophilic compounds (10 μM, structures of compounds in FIG. 12), a positive control immunosuppressive compound (DMF, 50 μM), or DMSO under TCR-stimulating conditions in 96-well plates pre-coated with 5 μg/mL αCD3 and 2 μg/mL αCD28 for 24 h. T cell activation was measured using a combination of markers, including IL2 and IFNγ secretion, as well as surface expression of CD25 and CD69. T cell viability was measured by flow cytometry using a Fixable Near-IR LIVE/DEAD™ Cell Stain. Compounds were considered as active hits if they reduced IL2 cytokine production by >65% with <15% reduction in T cell viability in the cytotoxicity assay compared to DMSO control. […]
The levels of secreted IL2, IFNγ and TNFα after incubating T cells in the presence of DMSO or electrophilic compounds under TCR-stimulating conditions were measured using DuoSet ELISA cytokine kits (R&D Systems) in clear microplates (R&D Systems) according to manufacturer's instructions and read using a CLARIOstar (BMG Labtech) plate reader (450 nm). All cytokine concentrations were calculated according to the standard curve generated for each experiment.

Assay [3] addresses T1, BIRC3 (Homo sapiens, UniProt Q13489, C28A).
T1 construct: endogenous in cells; host or cells: primary human T cells
Briefly: Western blot of BIRC3 content in human T cells. Format: cell-based. The note with it: EV-3 10 μM, 24 h; transfected primary human T cells.

T1 sequence (Q13489 whole entry C28A): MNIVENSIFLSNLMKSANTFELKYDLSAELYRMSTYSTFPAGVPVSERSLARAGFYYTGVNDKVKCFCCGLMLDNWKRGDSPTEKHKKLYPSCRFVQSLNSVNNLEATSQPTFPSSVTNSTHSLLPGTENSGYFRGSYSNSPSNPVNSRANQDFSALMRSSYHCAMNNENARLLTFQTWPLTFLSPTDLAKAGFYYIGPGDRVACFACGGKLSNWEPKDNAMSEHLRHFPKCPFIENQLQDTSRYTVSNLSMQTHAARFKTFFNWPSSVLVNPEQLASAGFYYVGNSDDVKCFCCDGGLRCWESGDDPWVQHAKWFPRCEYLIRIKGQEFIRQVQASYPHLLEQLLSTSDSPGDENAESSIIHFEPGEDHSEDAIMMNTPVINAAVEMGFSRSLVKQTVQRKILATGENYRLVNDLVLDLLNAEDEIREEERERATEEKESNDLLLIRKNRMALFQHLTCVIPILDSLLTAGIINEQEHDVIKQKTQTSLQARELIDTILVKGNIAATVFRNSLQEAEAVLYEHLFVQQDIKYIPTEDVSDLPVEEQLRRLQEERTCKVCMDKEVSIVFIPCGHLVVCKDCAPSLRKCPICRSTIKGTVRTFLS

Take `C=CC(=O)N(Cc1cccc(Cl)c1Cl)c1ccc(Oc2ccccc2)c(C(F)(F)F)c1` [BPK-21]: in assay [1], the “reductions in phosphorylation (NF-κB activation)” value is “did not appear to impact”.

In the case of `COC(=O)/C=C/C(=O)OC` [DMF, reference compound], the “suppress T cell activation” value in assay [2] is recorded as more than 65%.

For `O=C(CCl)N1CCN(S(=O)(=O)c2ccc(-c3ccncc3)cc2)CC1` [EV-3], the “FLAG-tagged BIRC3 C28A mutant content” value in assay [3] was “but not cysteine mutants”.
